pIC50: −log10 of the molar value.
Assays:
Assay in all cases: KAM-matrix competition in K562 lysate;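 on 0.001 uM KAM: median log10 fold change of treatment over DMSO control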;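 on 0.01 uM KAM: median log10 fold change of treatment over DMSO control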;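 on 0.1 uM KAM: median log10 fold change of treatment over DMSO control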;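 on 1 uM KAM: median log10 fold change of treatment over DMSO control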;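 on 10 uM KAM: median log10 fold change of treatment over DMSO control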
Format in all cases: binding
[1] = biological target: T1, TGFBR1 (Homo sapiens, UniProt P36897)
T1 construct: endogenous in cells; host or cells: K562
T1 sequence (P36897 34-503): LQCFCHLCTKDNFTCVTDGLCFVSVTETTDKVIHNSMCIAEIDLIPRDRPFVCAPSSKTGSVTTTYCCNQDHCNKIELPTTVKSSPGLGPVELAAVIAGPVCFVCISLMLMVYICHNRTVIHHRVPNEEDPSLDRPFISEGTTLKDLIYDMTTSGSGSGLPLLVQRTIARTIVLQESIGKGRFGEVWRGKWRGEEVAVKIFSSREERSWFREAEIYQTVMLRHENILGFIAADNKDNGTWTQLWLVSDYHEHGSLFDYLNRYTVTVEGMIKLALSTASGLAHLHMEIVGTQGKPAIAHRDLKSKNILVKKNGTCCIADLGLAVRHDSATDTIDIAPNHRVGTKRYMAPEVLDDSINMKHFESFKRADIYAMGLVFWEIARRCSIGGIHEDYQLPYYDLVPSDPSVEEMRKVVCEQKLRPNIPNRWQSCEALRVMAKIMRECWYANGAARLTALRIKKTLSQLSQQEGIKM
Procedure: (§1) Supplement 12953_2017_125_MOESM1_ESM.zip/MS_Supp Info.xlsx, sheet "KAM" | column: 10 uM KAM; 1 uM KAM; 0.1 uM KAM; 0.01 uM KAM; 0.001 uM KAM; RB50

[2] = biological target: T2, FYN (Homo sapiens, UniProt P06241)
T2 construct: endogenous in cells; host or cells: K562
Procedure: as §1

[3] = biological target: T3, CDC7 (Homo sapiens, UniProt O00311);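 on 0.001 uM KAM: median log10 fold change of treatment over DMSO control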;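 on 0.01 uM KAM: median log10 fold change of treatment over DMSO control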;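 on 0.1 uM KAM: median log10 fold change of treatment over DMSO control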;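 on 1 uM KAM: median log10 fold change of treatment over DMSO control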;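 on 10 uM KAM: median log10 fold change of treatment over DMSO control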
T3 construct: endogenous in cells; host or cells: K562 lysate
Procedure: as §1

[4] = biological target: T4, BMPR2 (Homo sapiens, UniProt Q13873);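 on 0.001 uM KAM: median log10 fold change of treatment over DMSO control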;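 on 0.01 uM KAM: median log10 fold change of treatment over DMSO control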;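 on 0.1 uM KAM: median log10 fold change of treatment over DMSO control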;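 on 1 uM KAM: median log10 fold change of treatment over DMSO control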;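 on 10 uM KAM: median log10 fold change of treatment over DMSO control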
T4 construct: endogenous in cells; host or cells: K562
T4 sequence (Q13873 27-1038): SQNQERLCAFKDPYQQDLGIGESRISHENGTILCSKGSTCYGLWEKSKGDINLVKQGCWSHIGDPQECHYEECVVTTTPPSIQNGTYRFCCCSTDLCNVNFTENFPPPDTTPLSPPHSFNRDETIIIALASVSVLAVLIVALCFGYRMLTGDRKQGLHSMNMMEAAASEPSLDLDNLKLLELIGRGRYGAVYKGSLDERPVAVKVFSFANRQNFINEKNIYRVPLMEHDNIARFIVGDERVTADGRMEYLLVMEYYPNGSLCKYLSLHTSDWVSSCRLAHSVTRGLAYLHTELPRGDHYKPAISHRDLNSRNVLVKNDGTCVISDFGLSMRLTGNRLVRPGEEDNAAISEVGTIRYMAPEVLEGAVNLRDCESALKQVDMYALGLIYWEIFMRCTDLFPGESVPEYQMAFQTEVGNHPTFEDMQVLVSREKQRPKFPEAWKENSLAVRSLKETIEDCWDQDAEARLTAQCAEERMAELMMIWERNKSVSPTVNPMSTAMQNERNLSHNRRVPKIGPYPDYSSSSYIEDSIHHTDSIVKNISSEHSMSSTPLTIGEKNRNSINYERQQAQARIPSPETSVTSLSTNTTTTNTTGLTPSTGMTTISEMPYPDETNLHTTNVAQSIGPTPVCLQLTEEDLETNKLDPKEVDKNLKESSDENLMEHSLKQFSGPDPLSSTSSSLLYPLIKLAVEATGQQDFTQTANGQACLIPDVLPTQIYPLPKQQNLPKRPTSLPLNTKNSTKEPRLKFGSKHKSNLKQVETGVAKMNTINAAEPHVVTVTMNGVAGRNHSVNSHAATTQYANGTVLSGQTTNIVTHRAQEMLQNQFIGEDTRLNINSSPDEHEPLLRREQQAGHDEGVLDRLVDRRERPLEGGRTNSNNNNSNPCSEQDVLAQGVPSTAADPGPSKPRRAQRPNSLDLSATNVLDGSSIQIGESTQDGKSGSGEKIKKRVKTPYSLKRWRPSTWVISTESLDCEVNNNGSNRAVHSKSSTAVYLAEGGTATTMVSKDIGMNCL
Procedure: as §1

[5] = biological target: T5, CIT (Homo sapiens, UniProt O14578);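 on 0.001 uM KAM: median log10 fold change of treatment over DMSO control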;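 on 0.01 uM KAM: median log10 fold change of treatment over DMSO control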;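 on 0.1 uM KAM: median log10 fold change of treatment over DMSO control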;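 on 1 uM KAM: median log10 fold change of treatment over DMSO control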;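 on 10 uM KAM: median log10 fold change of treatment over DMSO control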
T5 construct: endogenous in cells; host or cells: K562 lysate
Procedure: as §1

[6] = biological target: T6, CHEK1 (Homo sapiens, UniProt O14757)
T6 construct: endogenous in cells; host or cells: K562
T6 sequence (O14757 1-476): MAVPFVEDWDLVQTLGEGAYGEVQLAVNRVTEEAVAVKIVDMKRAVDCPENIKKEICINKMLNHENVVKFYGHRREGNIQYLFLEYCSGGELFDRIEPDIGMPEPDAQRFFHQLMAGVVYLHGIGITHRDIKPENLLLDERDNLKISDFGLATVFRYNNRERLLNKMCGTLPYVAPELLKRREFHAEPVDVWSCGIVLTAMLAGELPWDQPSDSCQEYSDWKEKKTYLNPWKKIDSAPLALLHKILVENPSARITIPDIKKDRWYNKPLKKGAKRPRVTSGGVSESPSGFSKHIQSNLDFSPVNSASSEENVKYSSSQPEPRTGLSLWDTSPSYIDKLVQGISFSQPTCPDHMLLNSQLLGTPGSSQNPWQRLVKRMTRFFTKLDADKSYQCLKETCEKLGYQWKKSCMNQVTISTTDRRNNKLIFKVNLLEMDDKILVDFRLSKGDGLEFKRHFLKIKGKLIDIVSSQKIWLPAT
Procedure: as §1

[7] = read-out: RB50 (the source's name)
[8] = KAM 0.001-10 uM, read-out: RB50 (the source's name)

SMILES: N#CCc1ccc(Nc2nc(NCCCN)cc(Nc3cc(C4CC4)[nH]n3)n2)cc1 [KAM]
- median Log10 fold change ([1]; 0.001 uM KAM): 0.003086
- median Log10 fold change ([1]; 0.01 uM KAM): -0.03819
- median Log10 fold change ([1]; 0.1 uM KAM): -0.2662
- median Log10 fold change ([1]; 1 uM KAM): -0.4673
- median Log10 fold change ([1]; 10 uM KAM): -0.5096
- pIC50 [1, 7]: 6.69
- median Log10 fold change ([2]; 0.001 uM KAM): -0.01373
- median Log10 fold change ([2]; 0.01 uM KAM): 0.006068
- median Log10 fold change ([2]; 0.1 uM KAM): -0.1646
- median Log10 fold change ([2]; 1 uM KAM): -0.3588
- median Log10 fold change ([2]; 10 uM KAM): -0.4538
- pIC50 [2, 7]: 6.12
- pIC50 [3, 8]: < 5.00
- 0.001 uM KAM ([3]; relative to 0 uM KAM = 0): -0.007298
- 0.01 uM KAM ([3]; relative to 0 uM KAM = 0): -0.03198
- 0.1 uM KAM ([3]; relative to 0 uM KAM = 0): -0.1182
- 1 uM KAM ([3]; relative to 0 uM KAM = 0): -0.2032
- 10 uM KAM ([3]; relative to 0 uM KAM = 0): -0.1853
- pIC50 [4, 8]: 5.18
- 0.001 uM KAM ([4]; relative to 0 uM KAM = 0): 0.0006826
- 0.01 uM KAM ([4]; relative to 0 uM KAM = 0): -0.02948
- 0.1 uM KAM ([4]; relative to 0 uM KAM = 0): -0.09644
- 1 uM KAM ([4]; relative to 0 uM KAM = 0): -0.1591
- 10 uM KAM ([4]; relative to 0 uM KAM = 0): -0.3053
- pIC50 [5, 8]: < 5.00
- 0.001 uM KAM ([5]; relative to 0 uM KAM = 0): -0.03357
- 0.01 uM KAM ([5]; relative to 0 uM KAM = 0): -0.05687
- 0.1 uM KAM ([5]; relative to 0 uM KAM = 0): -0.1025
- 1 uM KAM ([5]; relative to 0 uM KAM = 0): -0.03677
- 10 uM KAM ([5]; relative to 0 uM KAM = 0): -0.04946
- median Log10 fold change ([6]; 0.001 uM KAM): -0.01146
- median Log10 fold change ([6]; 0.01 uM KAM): -0.009061
- median Log10 fold change ([6]; 0.1 uM KAM): -0.1025
- median Log10 fold change ([6]; 1 uM KAM): -0.2953
- median Log10 fold change ([6]; 10 uM KAM): -0.4632
- pIC50 [6, 7]: 5.89
